This is an account of results in patent US12440476B2, “Agents that target telomerase reverse transcriptase (TERT) for treating cancer and sensitizing cancer cells to genotoxic therapy” (Northwestern University, priority 2022, dated 2025).

The nature of one data set: Tolerability in mice. The data set is classed as in vivo. The note with it: BALB/c mice.
A further data set concerns CT26 cells. Put plainly: Senescence-associated beta-galactosidase (SA-β-Gal) assay. The data set is classed as cell-based, mouse. The following applies: non-toxic doses, 10 Gy, 5 days. As to the method:
MCF7, Saos-2, or CT26 cells were seeded at 3×10^4 per well in 6-well plates and allowed to attach to plate overnight. For TERT inhibition, MCF7 cells were treated with DMSO vehicle, NU-2 (0.5 μM), NU-1 (0.5 μM), chrolactomycin (0.5 μM), BIBR 1532 (10 μM), or MST-312 (1 μM) for 1 h prior to IR, Saos-2 cells were treated with DMSO vehicle, NU-2 (1 μM), NU-1 (1 μM), chrolactomycin (1 μM), BIBR 1532 (20 μM), or MST-312 (1 μM) for 1 h prior to IR, and CT26 cells were treated with MSO vehicle, NU-2 (1 μM), NU-1 (1 μM), chrolactomycin (1 μM), BIBR 1532 (20 μM), or MST-312 (2 μM) for 1 h prior to IR. Then MCF7 and Saos-2 cells were irradiated with 0 or 6 Gy and CT26 cells with 0 or 10 Gy. After IR, MCF7 and Saos-2 cells were continuously cultured for 7 days and CT26 for 5 days, then fixed in 2% PFA and stained with staining buffer (1 mg/ml X-Gal (Golden Bio), 40 mM citric acid/sodium phosphate, 150 mM NaCl, 2 mM MgCl2, 3.3 mM K3[Fe(CN)6], 3.3 mM K4[Fe(CN)6], pH=6) for 16 h at 37° C., then washed with warm PBS three times and imaged in PBS within a week. Images were captured on a Zeiss Axiovert 200M microscope with a 20× Plan-NeoFluar objective and Axiocam digital camera. SA-β-Gal-positive and -negative cells were counted in more than 5 fields, yielding an average percentage indicated on each SA-β-Gal image as mean±SD. Three replicates were performed.
To examine the roles for STING, CT26 cells were seeded at 2×10^4 per well in 12-well plates and allowed to attach overnight. STING inhibitor C178 (0 or 4 μM) was added, followed by the addition of DMSO vehicle, NU-1 (1 μM), MST-312 (2 μM) or chrolactomycin (1 μM) for 1 h prior to 0 or 10 Gy. CT26 cells were cultured for 5 days, surviving cells were washed twice in PBS and cultured in fresh immune cell culture medium overnight. The CT26 cells were then cocultured with BMDCs for 12-16 h at a 1:2 ratio, and BMDCs were collected and analyzed after coculturing, as described above.

The test system of the next data set is CD8+ T cells. Put plainly: In vitro T cell priming assay (CFSE dilution). It is filed as cell-based, mouse. The note with it: DCs stimulated by inhibitor treated and irradiated (10 Gy) CT26 cells; 5 days; NU-1 1 μM, MST 2 μM. As to the method: To evaluate effects of TERT on tumor immunogenicity, CT26 cells were seeded at […] per well in 12-well plates, allowed to attach overnight, and then treated with DMSO, NU-1 (1 μM), or MST-312 (2 μM) for 1 h, followed by 0 or 10 Gy. 5 days after IR, the media were removed, cells washed with PBS, and fresh immune cell culture medium added. CT26 cells were then cultured overnight, followed by coculturing with immature BMDCs for 12-16 h at a 1:2 ratio. After coculture, the suspension BMDCs were collected into round bottom FACS tubes, washed with PBS, and stained with Zombie yellow (1:1000, BioLegend) for 10 min at room temperature. […] After PBS washing, cells were resuspended in 300 μL Cell Staining Buffer and analyzed using a BD Fortessa 4-15 HTS Flow cytometer within 2 hours. Data were then analyzed by FlowJo software. […]
Splenocytes isolated from CT26 immunized mice were stained with 0.5 μM carboxyfluorescein succinimidyl ester (CFSE) (Thermo Fisher Scientific, Cat #C34554) for 10 min at room temperature (Quah et al., 2007). […] Cells were analyzed using a BD Fortessa 4-15 HTS flow cytometer and FlowJo software. […]

The test system of a further data set is A549 cells. The note with it: cited from earlier work.
The next data set relates to Saos-2 cells. Put plainly: Clonogenic survival after irradiation (radiosensitivity). It is filed as cell-based, human. The following applies: NU-1 1 μM. Here is the method:
(§1) To assess radiosensitivity, MCF7, Saos-2, or CT26 cells were seeded in 6-well plates at 100 cells per well in triplicate, allowed to attach overnight and treated with DMSO or TERT inhibitors at subtoxic concentrations for 1 h prior to IR. MCF7 cells were treated with 0.5 μM NU-1, 10 μM BIBR 1532, or 1 μM MST-312, Saos-2 cells with 1 μM NU-1 or 20 μM BIBR 1532 and CT26 cells with 1 μM NU-1, 20 μM BIBR 1532 or 2 μM MST-312. Doses of 0, 1, 2, 3, 4, or 5 Gy were applied using a GammaCell ^60Co γ-ray source (Nordion) at a dose rate of 7.09 cGy/sec. After that MCF7 and Saos-2 cells were cultured for 3 weeks and CT26 for 2 weeks, then fixed and stained with crystal violet. Colonies of at least 50 cells were counted. Data from three independent biological replicates were acquired. The surviving fraction (SF) was calculated using the following formula: […]

The subject of the next data set is MCF7 cells. The data set is described as above. It is filed as cell-based, human. The following applies: NU-1 0.5 μM. As to the method:
as §1

In the case of `C=C1C(=O)[C@](C)(C(=O)OC)[C@H](CCc2cn(Cc3ccc(F)cc3F)nn2)O[C@@H]1C` [NU-1], the Tolerability in mice entry in the data set “Tolerability in mice” is recorded as “well-tolerated”. Besides, the “Senescence induction by IR” value with CT26 cells is listed as “enhanced senescence induction by IR”. In addition, the “Proliferating CD8+ T cells” value in the data set with CD8+ T cells is listed as 33.5%. Moreover, the LD50 with A549 cells is 35 µM. Further, the “Radiosensitization in clonogenic survival assay” value was “Neither NU-1 nor BIBR displayed radiosensitization” with Saos-2 cells (Saos-2 (telomerase negative), BIBR 20 μM) and “strongest effects” in the data set with MCF7 cells (MCF7, BIBR 10 μM, MST 1 μM, IR 0-5 Gy). The “Mean SF2 (surviving fraction at 2 Gy)” value was 0.583 in the data set with Saos-2 cells (Saos-2 cells, BIBR 1532 20 μM for 1 h prior to IR, 2 Gy) and 0.116 in the data set on MCF7 cells (MCF7 cells, BIBR 1532 10 μM, MST-312 1 μM for 1 h prior to IR, 2 Gy).
